# Experimental data taken from ChEMBL document CHEMBL1641367, “Antioxidant, anti-inflammatory and anti-hyperglycaemic activities of heterocyclic homoprostanoid derivatives” (2011).
# Calls of active or inactive are those of the source. The calls are words filed in the database; no cut-off is given here.
# Tests used:
# Serum [1] = test: Antiinflammatory activity in bovine serum assessed as denaturation of albumin at 0.01 mM after 10 mins by spectrophotometry; type: functional; details: Bos taurus
# [2] = biological target: Dipeptidyl peptidase 4 (Homo sapiens) (UniProt P27487); test: Inhibition of DPP4 at 500 ug/ml after 30 mins by spectrophotometry
# Dipeptidyl peptidase 4 (Homo sapiens), sequence (P27487 whole entry, looked up): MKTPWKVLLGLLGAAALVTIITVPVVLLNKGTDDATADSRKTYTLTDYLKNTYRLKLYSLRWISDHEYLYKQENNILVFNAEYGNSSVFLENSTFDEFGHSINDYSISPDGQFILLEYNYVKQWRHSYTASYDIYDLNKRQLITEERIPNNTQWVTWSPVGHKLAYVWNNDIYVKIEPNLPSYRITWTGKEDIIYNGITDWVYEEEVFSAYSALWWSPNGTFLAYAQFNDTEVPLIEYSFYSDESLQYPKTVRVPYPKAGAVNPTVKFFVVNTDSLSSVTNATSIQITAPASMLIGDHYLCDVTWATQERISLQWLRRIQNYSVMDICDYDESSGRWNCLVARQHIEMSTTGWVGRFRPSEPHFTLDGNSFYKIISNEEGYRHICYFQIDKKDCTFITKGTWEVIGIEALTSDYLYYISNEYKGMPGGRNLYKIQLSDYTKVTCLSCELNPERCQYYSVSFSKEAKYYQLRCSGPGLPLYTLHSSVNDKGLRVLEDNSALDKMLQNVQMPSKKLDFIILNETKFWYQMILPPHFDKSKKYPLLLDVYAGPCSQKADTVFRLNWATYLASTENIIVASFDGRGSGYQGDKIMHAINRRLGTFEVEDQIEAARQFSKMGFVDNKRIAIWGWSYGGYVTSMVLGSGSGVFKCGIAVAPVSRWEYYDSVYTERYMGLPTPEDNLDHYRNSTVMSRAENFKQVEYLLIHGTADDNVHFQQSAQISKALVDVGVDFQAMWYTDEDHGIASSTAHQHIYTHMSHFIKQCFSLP
# Rattus norvegicus [3] = test: Antiinflammatory activity in rat assessed as inhibition of carrageenan-induced hind paw edema at 100 mg/kg, po measured after 3 hrs of carrageenan challenge; type: functional
# Serum [4] = test: Antiinflammatory activity in bovine serum assessed as denaturation of albumin at 1 mM after 10 mins by spectrophotometry; type: functional; details: Bos taurus
# Mus musculus [5] = test: Antihyperglycemic activity in mouse assessed as decrease in blood glucose AUC level at 100 mg/kg, ip administered before glucose challenge measured after 120 mins post glucose infusion; type: functional; details: 2 h, route intraperitoneal
# Mus musculus [6] = test: Antihyperglycemic activity in mouse assessed as decrease in blood glucose AUC level at 100 mg/kg, po administered before glucose challenge measured after 120 mins post glucose infusion; type: functional, organism-based; set-up: dose 100 mg/kg
# Rattus norvegicus [7] = test: Antiinflammatory activity in rat assessed as inhibition of complete Freund's adjuvant-induced paw swelling at 100 mg/kg, po administered on day 21 post induction of inflammation measured on day 35; type: functional
# Serum [8] = test: Antiinflammatory activity in bovine serum assessed as denaturation of albumin at 0.25 mM after 10 mins by spectrophotometry; type: functional; details: Bos taurus
# Serum [9] = test: Antiinflammatory activity in bovine serum assessed as denaturation of albumin at 5 mM after 10 mins by spectrophotometry; type: functional; details: Bos taurus
# Rattus norvegicus [10] = test: Antiinflammatory activity in rat assessed as inhibition of complete Freund's adjuvant-induced paw swelling at 5 mg/kg, po administered on day 21 post induction of inflammation measured on day 35; type: functional
inhibition [2] [%],Compound,inhibition in vivo at 100 mg/kg (Rattus norvegicus [3]) [%],inhibition at 1000 µM (Serum [4]) [%],further results
23.3,CCCCCCCCC1=NC(=S)N=C1CCCCCCCC(=O)OCCO[N+](=O)[O-],-22.4,,inhibition at 10 µM (Serum [1]): 38.1%
,CCCCCCCCC1=NC(=S)N=C1CCCCCCCC(=O)O,-7.17,78.3,
73.6,CCCCCCCCc1nc2ccccc2nc1CCCCCCCC(=O)O,34.4,75.7,
,CCCCCCCCC1=NC(=O)N=C1CCCCCCCC(=O)NN,,31.4,
64,CCCCCCCCc1nc2ccc([N+](=O)[O-])cc2nc1CCCCCCCC(=O)O,39.6,36.9,inhibition in vivo at 100 mg/kg (Mus musculus [5]): 45.1%; inhibition (Mus musculus [6]): inactive; inhibition in vivo at 100 mg/kg (Rattus norvegicus [7]): 53.3%
12.3,CCCCCCCCC1=NC(=O)CC(=O)N=C1CCCCCCCC(=O)O,1.74,,inhibition at 250 µM (Serum [8]): 37%
58.3,CCCCCCCCc1nc(=S)[nH]nc1CCCCCCCC(=O)O,-3.82,,inhibition at 250 µM (Serum [8]): 14%
-6.22,CCCCCCCCC1=NC(=O)N=C1CCCCCCCC(=O)OCCO[N+](=O)[O-],-22.8,25.1,
45.5,CCCCCCCCc1nc2ccc(Cl)cc2nc1CCCCCCCC(=O)O,26.7,57.1,inhibition in vivo at 100 mg/kg (Mus musculus [5]): 36.7%; inhibition (Mus musculus [6]): inactive; inhibition in vivo at 100 mg/kg (Rattus norvegicus [7]): 44.2%
2.2,CCCCCCCCc1nonc1CCCCCCCC(=O)O,,,inhibition at 5000 µM (Serum [9]): 25.4%
,CCCCCCCCC1=NC(=S)N=C1CCCCCCCC(=O)NN1C(=O)CSC1c1ccc(Cl)cc1 (stereo unspecified),-21.7,,
,CCCCCCCCC1=NC(=S)N=C1CCCCCCCC(=O)NN,,,inhibition at 10 µM (Serum [1]): 37.2%
,CCCCCCCCC1=NC(=O)N=C1CCCCCCCC(=O)NN1C(=O)CSC1c1ccc(Cl)cc1 (stereo unspecified),0,,
,CCCCCCCCc1nc2ccccc2nc1CCCCCCCC(=O)NN,,3.72,
,CCCCCCC(CC1OC(C)(C)OC1CCCCCCCC(=O)OC)OC(C)=O (stereo unspecified),,,inhibition at 5000 µM (Serum [9]): 48.5%
,CCCCCCCCC1OC(C)(C)OC1CCCCCCCC(=O)OCC (stereo unspecified),,,inhibition at 5000 µM (Serum [9]): 46.4%
,O=C(O)Cc1ccccc1Nc1c(Cl)cccc1Cl [DICLOFENAC],38.2,,inhibition at 5000 µM (Serum [9]): 56.3%; inhibition in vivo at 5 mg/kg (Rattus norvegicus [10]): 35.3%
,CCCCCCCCC1=NC(=O)N=C1CCCCCCCC(=O)O,-12.9,76.7,
88.1,CCCCCCCCc1nc2ccc(C)cc2nc1CCCCCCCC(=O)O,12.5,37.4,
